The values below come from patent US7235401B2, “Method for determining cell cycle position” (GE Healthcare UK Limited, priority 2001, dated 2007).

Entries after “also recorded” stand apart in the source; their conditions may differ.

One assay concerns U20S cells (ATCC HTB-96). In words: Effect of cell cycle blocking agents on GFP fluorescence from cell cycle phase marker using transiently transfected cells. It counts as cell-based. To be noted: U20S cells transiently transfected with cyclin B1 promoter/D-box/CRS-GFP reporter; 24 hours exposure; confocal scanning imager (FIG. 5). As for the experimental part:
U20S cells (ATCC HTB-96) were cultured in wells of a 96 well microtitre plate. Cells were transfected with a cell cycle reporter construct prepared according to Example 1, comprising a cyclin B1 promoter operably linked to sequences encoding the cyclin B1 D-box, the cyclin B1 CRS, and GFP in a pCORON4004 vector (Amersham Biosciences) using Fugene 6 (Roche) as the transfection agent.
Following 24 hours of culture, cells were exposed to the specific cell cycle blockers mimosine (blocks at G1/S phase boundary) or demecolcine (blocks in M phase). Control cells were exposed to culture media alone.
Cells were incubated for a further 24 hours and then analysed for nuclear GFP expression using a confocal scanning imager with automated image analysis (IN Cell Analysis System, Amersham Biosciences).

In another assay the test system is U2-OS cells. Kind of assay: Effect of cell cycle inhibiting drugs on GFP expression levels, FACS analysis of stable EGFP reporter cell line. The format is cell-based. To be noted: 100 ng/ml demecolcine or 1 mM mimosine for 24 hours (FIG. 9). The source says:
The green fluorescent protein reporter sequence in the vector described in example 1 was replaced with enhanced GFP (EGFP; Cormack, B. P. et al, Gene, (1996), 173, 33–38; BD Clontech) by standard methods. The EGFP gene is a brighter form of GFP containing the mutations F64L and S65T. In addition, EGFP contains codons that have been altered to optimise expression in mammalian cells. This new construct was transfected into U2-OS cells and a number of colonies were isolated by selection with geneticin followed by sorting of single cells using a fluorescence activated cell sorter.
The cells were prepared for FACS analysis by standard methods. Briefly the cells were fixed and permeabilised using CytoFix/CytoPerm (Becton Dickinson) according to the manufacturers procedures. The cells were then treated with 50 μg/ml RNAse and 0.4% Triton X-100 and counterstained with 100 μg/ml propidium iodide. The degree of propidium iodide staining is proportional to the amount of DNA in the cell and therefore a measure of the cell cycle phase of the cell. As expected, the degree of red propidium iodide staining and the amount of green GFP fluorescence appear to be proportional in the cells.
The cells prepared in Example 5 were grown in 25 cm^2 flasks and treated with either 100 ng/ml demecolcine (Sigma) or 1 mM mimosine (Sigma) for 24 hours. The cells were then fixed, permeabilised and stained with propidium iodide as described in example 5.

Take `CN[C@H]1CCc2cc(OC)c(OC)c(OC)c2-c2ccc(OC)c(=O)cc21` [demecolcine]: the “nuclear GFP fluorescence compared to control cells” value in the assay with U20S cells (ATCC HTB-96) is recorded as “increased fluorescence”. In addition, in the assay on U2-OS cells, the “cell cycle phase of arrest (FACS, propidium iodide staining)” value (“cell cycle phase of arrest” below) was “arrested in G2/M” and the “relative green fluorescence intensity (FACS, FL1H)” value is “brighter than the cells that had been arrested at G1/S”. For the same compound, in the assay on U2-OS cells (listed as colchicine), the “cell cycle phase of arrest” value is given as “blocked in G2/M” and the “relative green fluorescence intensity (FACS, FL1H)” value is “relatively high green fluorescence”.

In the case of `NC(Cn1ccc(=O)c(O)c1)C(=O)O` (centres unmarked) [mimosine], the “nuclear GFP fluorescence compared to control cells” value in the assay on U20S cells (ATCC HTB-96) is “decreased fluorescence”. In addition, in the assay with U2-OS cells, the “cell cycle phase of arrest” value is listed as “partially blocked in G1/S; also recorded: arrested at the G1/S boundary” and the “relative green fluorescence intensity (FACS, FL1H)” value is listed as “relatively low green fluorescence”.
